Values of other authors as cited in patent publication US6384246B1, “Process for the preparation of maltol from plants belonging to the genus Abies” (Council of Scientific & Industrial Research, priority 2001, dated 2002).

Details: in ethylene glycol at ambient temperature

Cc1occc(=O)c1O [maltol, 2-methyl-3-hydroxy-4-pyrone]
solubility of maltol in ethylene glycol: about 4%
